According to US12617762B2, “Carboxy derivatives with antiinflamatory properties” (Sitryx Therapeutics Limited, priority 2019, dated 2026):
Read-outs that look alike come from different tables or passages of the source.

How the values were obtained:
[1] = tested on: IL-1β cytokine output from THP-1s; experiment: THP-1 AlphaLISA IL-1β cytokine inhibition assay; format: cell-based; settings: for IC50: Homo sapiens, THP-1, differentiated THP-1 cells, LPS then nigericin; for IL-1β lowering, result in words: THP-1 IL-1β assay
Description: Measuring Inhibitory Effects on IL-1β Cytokine Output from THP-1s
The cytokine inhibition profiles of compounds of formula (I) were determined in a differentiated THP-1 cell assay. All assays were performed in RPMI-1640 growth medium (Gibco), supplemented with 10% fetal bovine serum (FBS; Gibco), 1% penicillin-streptomycin and 1% sodium pyruvate unless specified otherwise. The IL-1β cytokine inhibition assay was run in a background of differentiated THP-1 cells as described below. All reagents described were from Sigma-Aldrich unless specified otherwise. Compounds were prepared as 10 mM DMSO stocks.
THP-1 cells were expanded as a suspension up to 80% confluence in appropriate growth medium. Cells were harvested, suspended, and treated with an appropriate concentration of phorbol 12-myristate 13-acetate (PMA) over a 72 hr period (37° C./5% CO2).
Following 72 hrs of THP-1 cell incubation, cellular medium was removed and replaced with fresh growth media containing 1% of FBS. Working concentrations of compounds were prepared separately in 10% FBS treated growth medium and pre-incubated with the cells for 30 minutes (37° C./5% CO2). Following the 30 minute compound pre-incubation, THP-1s were treated with an appropriate concentration of LPS and the cells were subsequently incubated for a 24 hr period (37° C./5% CO2). An appropriate final concentration of Nigericin was then dispensed into the THP-1 plates and incubated for 1 hour (37° C./5% CO2) before THP-1 supernatants were harvested and collected in separate polypropylene 96-well holding plates.
Reagents from an IL-1β and IL-6 commercial kit (Perkin Elmer) were prepared and run according to the manufacturer's instructions. Subsequently, fluorescence signal detection in a microplate reader was measured (EnVision® Multilabel Reader, Perkin Elmer).
Percentage inhibition was calculated per cytokine by normalising the sample data to the high and low controls used within each plate (+/− LPS respectively).

[2] = Hepatocyte stability assay, mouse; format: in vitro ADME; settings: mouse, hepatocytes; for hepatocyte CLint at 10 μM: Hepatocyte stability Clint; for half-life at 10 μM: Hepatocyte stability T½
Source text: (§1) Defrosted cryo-preserved hepatocytes (viability >70%) were used to determine the metabolic stability of a compound via calculation of intrinsic clearance (CIint; a measure of the removal of a compound from the liver in the absence of blood flow and cell binding). Clearance data are particularly important for in vitro work as they can be used in combination with in vivo data to predict the half-life and oral bioavailability of a drug.
(§2) The metabolic stability in hepatocytes assay involves a time-dependent reaction using both positive and negative controls. The cells were pre-incubated at 37° C. then spiked with test compound (and positive control); samples were taken at pre-determined time intervals and were analysed to monitor the change in concentration of the initial drug compound over 60 minutes. A buffer incubation reaction (with no hepatocytes present) acted as a negative control and two cocktail solutions, containing compounds with known high and low clearance values (verapamil/7-hydroxycoumarin and propranolol/diltiazem), acted as positive controls. • 1. The assay was run with a cell concentration of 0.5×10^6 cells/mL in Leibovitz buffer. • 2. All compounds and controls were run in duplicate. • 3. Compound concentration was 10 μM. • 4. All compounds and controls were incubated with both cells and buffer to show turnover was due to hepatic metabolism. • 5. All wells on the incubation plate had 326.7 μL of either cells or buffer added. • 6. Prior to assay, cell and buffer-only incubation plates were preincubated for 10 mins at 37° C. • 7. The assay was initiated by adding compounds, 3.3 μL of 1 mM in 10% DMSO—90% Buffer; final DMSO concentration was 0.1%. • 8. Samples were taken at regular timepoints (0, 5, 10, 20, 40, 60 min) until 60 mins. • 9. Sample volume was 40 μL and was added to 160 μL of crash solvent (acetonitrile with internal standard) and stored on ice. • 10. At the end of the assay, the crash plates were centrifuged at 3500 rpm for 20 mins at 4° C. • 11. 80 μL of clear supernatant was removed and mixed with 80 μL of deionised water before being analysed by LC-MS/MS.
(§3) Raw LC-MS/MS data was exported to, and analysed in, Microsoft Excel for determination of intrinsic clearance. The percentage remaining of a compound was monitored using the peak area of the initial concentration as 100%. Intrinsic clearance and half-life values were calculated using a graph of the natural log of percentage remaining versus the time of reaction in minutes.

[3] = Hepatocyte stability assay, human; format: in vitro ADME; settings: human, hepatocytes; for hepatocyte CLint at 10 μM: Hepatocyte stability Clint; for half-life at 10 μM: Hepatocyte stability T½
Source text: as §1, §2, §3

[4] = tested on: NRF2 (nuclear factor erythroid 2-related factor 2); experiment: NRF2 +/-GSH activation assay (DiscoverX PathHunter NRF2 translocation kit, U2OS cells); format: cell-based; settings: for NRF2 activation +GSH Emax / NRF2 activation −GSH Emax: normalised to DMF high control
Description: Measuring Compound Activation Effects on the Anti-Inflammatory Transcription Factor NRF2 in DiscoverX PathHunter NRF2 Translocation Kit
Potency and efficacy of compounds of formula (I) against the target of interest to activate NRF2 (nuclear factor erythroid 2-related factor 2) were determined using the PathHunter NRF2 translocation kit (DiscoverX). The NRF2 translocation assay was run using an engineered recombinant cell line, utilising enzyme fragment complementation to determine activation of the Keap1-NRF2 protein complex and subsequent translocation of NRF2 into the nucleus. Enzyme activity was quantified using a chemiluminescent substrate consumed following the formation of a functional enzyme upon PK-tagged NRF2 translocation into the nucleus.
The assay was run under both +/−GSH (glutathione) conditions to determine the sensitivity of the compounds' NRF2-activating abilities to attenuation by GSH.
Additionally, a defined concentration of DMF was used as the ‘High’ control to normalise test compound activation responses to.
U2OS PathHunter eXpress cells were thawed from frozen prior to plating. Following plating, U2OS cells were incubated for 24 hrs (37° C./5% CO2) in commercial kit provided cell medium.
Following 24 hrs of U2OS incubation, cells were directly treated with an appropriate final concentration of compound, for −GSH conditions or, for +GSH conditions, an intermediate plate containing 6× working concentrations of compound stocks was prepared in a 6 mM working concentration of GSH solution (solubilised in sterile PBS). Following a 30 minute compound-GSH pre-incubation (37° C./5% CO2) for +GSH treatment, plated U2OS cells were incubated with an appropriate final concentration of compound and GSH.
Following compound (+/−GSH) treatment, the U2OS plates were incubated for a further 6 hours (37° C./5% CO2) before detection reagent from the PathHunter NRF2 commercial kit was prepared and added to test plates according to the manufacturer's instructions. Subsequently, the luminescence signal detection was measured in a microplate reader (PHERAstar®, BMG Labtech).
Percentage activation was calculated by normalising the sample data to the high and low controls used within each plate (+/−DMF).

[5] = +GSH, 30 minute compound-GSH pre-incubation, read-out: NRF2 activation +GSH EC50
[6] = −GSH, U2OS PathHunter cells, 6 hours compound treatment, read-out: NRF2 activation −GSH EC50

hepatocyte CLint at 10 μM [2] [µL/min/1e6 cells]	half-life at 10 μM [2] [min]	hepatocyte CLint at 10 μM [3] [µL/min/1e6 cells]	half-life at 10 μM [3] [min]	Compound	IC50 [1] [µM]	EC50 [4, 5] [µM]	NRF2 activation +GSH Emax ([4]; +GSH) [%]	EC50 [4, 6] [µM]	NRF2 activation −GSH Emax ([4]; −GSH) [%]	IL-1β lowering, result in words [1]
> 460	< 3	67	22	C=C(Cc1nc(Cc2ccc(C3(CCC)CC3)cc2)no1)C(=O)O [Example 147, 2-((3-(4-(1-propylcyclopropyl)benzyl)-1,2,4-oxadiazol-5-yl)methyl)acrylic acid]	29.9	–	–	–	–	–
256	6	49	30	C=C(Cc1nc(Cc2ccc(C3CCC3)cc2)no1)C(=O)O [Example 128, 2-((3-(4-cyclobutylbenzyl)-1,2,4-oxadiazol-5-yl)methyl)acrylic acid]	26.3	–	–	–	–	–
–	–	–	–	C=C(Cc1nc(Cc2ccc(C)c(Cl)c2)no1)C(=O)O [Example 165, 2-((3-(3-chloro-4-methylbenzyl)-1,2,4-oxadiazol-5-yl)methyl)acrylic acid]	> 100	> 100	16	> 100	25	–
–	–	–	–	C=C(Cc1nc(-c2ccc(OC3CCC3)cc2)no1)C(=O)O [Example 142, 2-((3-(4-cyclobutoxyphenyl)-1,2,4-oxadiazol-5-yl)methyl)acrylic acid]	> 100	26.9	168	23.3	189	–
–	–	–	–	C=C(Cc1nc(C2CCCCCC2)no1)C(=O)O [Example 65, 2-((3-cycloheptyl-1,2,4-oxadiazol-5-yl)methyl)acrylic acid]	> 100	> 100	17	> 100	50	not effective
–	–	–	–	C=C(Cc1nc(C23CC4CC(CC(C4)C2)C3)no1)C(=O)O [Example 66, 2-((3-(adamantan-1-yl)-1,2,4-oxadiazol-5-yl)methyl)acrylic acid]	> 100	> 100	14	> 100	23	not effective
–	–	–	–	C=C(Cc1nc(C2CCCCC2)no1)C(=O)O [Example 64, 2-((3-cyclohexyl-1,2,4-oxadiazol-5-yl)methyl)acrylic acid]	> 100	> 100	17	> 100	86	not effective
–	–	–	–	C=C(Cc1nc(C2(c3ccccc3Cl)CC2)no1)C(=O)O [Example 24, 2-((3-(1-(2-chlorophenyl)cyclopropyl)-1,2,4-oxadiazol-5-yl)methyl)acrylic acid]	> 100	> 100	17	42.4	57	not effective
–	–	–	–	C=C(Cc1nc(C(F)(F)c2ccc(F)cc2)no1)C(=O)O [Example 125, 2-((3-(difluoro(4-fluorophenyl)methyl)-1,2,4-oxadiazol-5-yl)methyl)acrylic acid]	> 100	> 100	26	> 100	37	–
–	–	–	–	C=C(Cc1nc(C2(c3ccc([S+]([O-])C(F)(F)F)cc3)CC2)no1)C(=O)O (stereo not shown) [Example 157, 2-((3-(1-(4-((trifluoromethyl)sulfinyl)phenyl)cyclopropyl)-1,2,4-oxadiazol-5-yl)methyl)acrylic acid]	> 100	> 100	−5	> 100	41	–
–	–	–	–	C=C(Cc1nc(-c2ccc(OCCCOC)cc2)no1)C(=O)O [Example 159, 2-((3-(4-(3-methoxypropoxy)phenyl)-1,2,4-oxadiazol-5-yl)methyl)acrylic acid]	> 100	39.9	85	34.4	87	–
–	–	–	–	C=C(Cc1nc(-c2ccc(SC(F)(F)F)cc2)no1)C(=O)O [Example 158, 2-((3-(4-((trifluoromethyl)thio)phenyl)-1,2,4-oxadiazol-5-yl)methyl)acrylic acid]	> 31.6	2.9	196	2.6	189	–
–	–	–	–	C=C(Cc1nc(Cc2ccc(OC)c(Cl)c2)no1)C(=O)O [Example 163, 2-((3-(3-chloro-4-methoxybenzyl)-1,2,4-oxadiazol-5-yl)methyl)acrylic acid]	> 100	> 100	−10	61.4	61	–
–	–	–	–	C=C(Cc1ncn(CCCCCCCC)n1)C(=O)O [Example 13, 2-((1-octyl-1H-1,2,4-triazol-3-yl)methyl)acrylic acid]	> 100	48.6	51	43.1	54	not effective
–	–	–	–	C=C(Cc1nc(Cc2cc(F)c(Cl)c(F)c2)no1)C(=O)O [Example 164, 2-((3-(4-chloro-3,5-difluorobenzyl)-1,2,4-oxadiazol-5-yl)methyl)acrylic acid]	> 100	63.4	5.5	42.7	62	–

Compound	hepatocyte CLint at 10 μM [2] [µL/min/1e6 cells]	half-life at 10 μM [2] [min]	hepatocyte CLint at 10 μM [3] [µL/min/1e6 cells]	half-life at 10 μM [3] [min]	IC50 [1] [µM]	EC50 [4, 5] [µM]	NRF2 activation +GSH Emax ([4]; +GSH) [%]	EC50 [4, 6] [µM]	NRF2 activation −GSH Emax ([4]; −GSH) [%]	IL-1β lowering, result in words [1]
C=C(Cc1nc(CCCCCCCC)cs1)C(=O)O [Example 38, 2-((4-octylthiazol-2-yl)methyl)acrylic acid]	204	9	> 447	< 3	7.8	–	–	–	–	–
